Assay results taken from ChEMBL document CHEMBL4138256, “Design, Synthesis, and Biological Activity of 1,2,3-Triazolobenzodiazepine BET Bromodomain Inhibitors” (ACS Med Chem Lett, 2017).
pEC50, pIC50: −log10 of the molar value.

Tests used:
[1] = target: T1, Bromodomain-containing protein 2 (Homo sapiens, UniProt P25440); experiment: Inhibition of human His-tagged Brd2 bromodomain 2 expressed in Escherichia coli BL21 (DE3) preincubated for 30 mins followed by addition of biotinylated acetyl-histone H4 peptide and measured after 1 hr by AlphaScreen assay
Target sequence in this assay (P25440 whole entry): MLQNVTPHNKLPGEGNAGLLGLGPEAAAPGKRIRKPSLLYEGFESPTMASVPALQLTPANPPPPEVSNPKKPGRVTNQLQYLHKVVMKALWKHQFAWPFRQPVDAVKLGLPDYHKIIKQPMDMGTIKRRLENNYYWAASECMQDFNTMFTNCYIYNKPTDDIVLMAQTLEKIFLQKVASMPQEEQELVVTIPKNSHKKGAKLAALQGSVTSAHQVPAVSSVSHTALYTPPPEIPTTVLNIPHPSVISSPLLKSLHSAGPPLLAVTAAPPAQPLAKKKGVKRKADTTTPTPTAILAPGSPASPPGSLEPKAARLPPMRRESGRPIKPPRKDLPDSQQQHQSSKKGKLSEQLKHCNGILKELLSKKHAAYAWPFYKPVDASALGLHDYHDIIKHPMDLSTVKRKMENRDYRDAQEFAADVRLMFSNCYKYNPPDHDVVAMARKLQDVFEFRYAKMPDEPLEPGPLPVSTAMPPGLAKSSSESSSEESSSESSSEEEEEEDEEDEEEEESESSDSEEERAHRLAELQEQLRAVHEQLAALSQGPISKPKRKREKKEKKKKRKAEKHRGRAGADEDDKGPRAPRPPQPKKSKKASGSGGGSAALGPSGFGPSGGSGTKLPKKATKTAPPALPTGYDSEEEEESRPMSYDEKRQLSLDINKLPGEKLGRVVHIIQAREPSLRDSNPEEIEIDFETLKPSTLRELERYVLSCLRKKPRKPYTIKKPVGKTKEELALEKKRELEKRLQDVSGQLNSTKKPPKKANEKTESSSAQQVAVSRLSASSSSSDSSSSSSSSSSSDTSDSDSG

[2] = target: T2, Bromodomain-containing protein 4 (Homo sapiens, UniProt O60885)
Description: Inhibition of human His-tagged Brd4 bromodomain 2 expressed in Escherichia coli BL21 (DE3) preincubated for 30 mins followed by addition of biotinylated acetyl-histone H4 peptide and measured after 1 hr by AlphaScreen assay

[3] = target: T1, Bromodomain-containing protein 2; experiment: Inhibition of human His-tagged Brd2 bromodomain 1 expressed in Escherichia coli BL21 (DE3) preincubated for 30 mins followed by addition of biotinylated acetyl-histone H4 peptide and measured after 1 hr by AlphaScreen assay
Target sequence in this assay (P25440 whole entry): as above

[4] = target: Bromodomain-containing protein 3 (Homo sapiens, UniProt Q15059); experiment: Inhibition of human His-tagged Brd3 bromodomain 1 expressed in Escherichia coli BL21 (DE3) preincubated for 30 mins followed by addition of biotinylated acetyl-histone H4 peptide and measured after 1 hr by AlphaScreen assay
Sequence of Bromodomain-containing protein 3 (Q15059 whole entry): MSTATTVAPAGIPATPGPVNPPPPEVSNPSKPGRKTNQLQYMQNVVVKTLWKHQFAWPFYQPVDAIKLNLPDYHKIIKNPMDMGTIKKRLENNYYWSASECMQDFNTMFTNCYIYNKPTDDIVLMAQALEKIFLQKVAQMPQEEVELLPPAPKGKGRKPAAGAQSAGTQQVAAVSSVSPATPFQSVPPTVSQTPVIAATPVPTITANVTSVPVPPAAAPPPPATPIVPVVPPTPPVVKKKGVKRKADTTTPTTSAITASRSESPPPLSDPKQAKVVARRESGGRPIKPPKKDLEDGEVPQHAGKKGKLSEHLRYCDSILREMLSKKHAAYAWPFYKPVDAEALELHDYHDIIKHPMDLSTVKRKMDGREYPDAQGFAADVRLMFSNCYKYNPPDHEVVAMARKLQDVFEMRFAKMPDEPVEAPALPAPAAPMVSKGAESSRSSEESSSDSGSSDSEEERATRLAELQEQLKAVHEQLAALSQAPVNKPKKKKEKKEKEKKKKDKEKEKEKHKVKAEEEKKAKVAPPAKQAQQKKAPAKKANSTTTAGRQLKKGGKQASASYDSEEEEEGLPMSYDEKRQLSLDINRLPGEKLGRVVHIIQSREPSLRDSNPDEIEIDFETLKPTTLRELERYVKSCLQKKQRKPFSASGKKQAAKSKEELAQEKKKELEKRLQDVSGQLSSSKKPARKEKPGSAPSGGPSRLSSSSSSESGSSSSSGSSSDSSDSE

[5] = target: T2, Bromodomain-containing protein 4; remark: listed apart in the source
Description: Inhibition of human His-tagged Brd4 bromodomain 1 expressed in Escherichia coli BL21 (DE3) preincubated for 30 mins followed by addition of biotinylated acetyl-histone H4 peptide and measured after 1 hr by AlphaScreen assay

RPMI-8226 = experiment: Antiproliferative activity against human RPMI8226 cells after 72 hrs by Cell-TiterGlo assay; format: functional, cell-based; settings: RPMI-8226, 72 h
HEL 92.1.7 = experiment: Antiproliferative activity against human HEL 92.1.7 cells after 72 hrs by Cell-TiterGlo assay; format: functional, cell-based; settings: HEL 92.1.7, 72 h
[6] = Antiproliferative activity against human MLL-AF9 cells after 72 hrs by Cell-TiterGlo assay; format: functional, cell-based; settings: MLL-AF9, 72 h
CCRF-CEM = experiment: Antiproliferative activity against human CCRF-CEM cells after 72 hrs by Cell-TiterGlo assay; format: functional, cell-based
[7] = Antiproliferative activity against mouse 148I cells after 72 hrs by Cell-TiterGlo assay; format: functional, cell-based
K562 = experiment: Antiproliferative activity against human K562 cells after 72 hrs by Cell-TiterGlo assay; format: functional, cell-based; settings: K562, 72 h
[8] = Antiproliferative activity against mouse 494H cells after 72 hrs by Cell-TiterGlo assay; format: functional, cell-based
DOHH-2 = experiment: Antiproliferative activity against human DOHH2 cells after 72 hrs by Cell-TiterGlo assay; format: functional, cell-based; settings: DOHH-2, 72 h
MV4-11 = experiment: Antiproliferative activity against human MV4-11 cells after 72 hrs by Cell-TiterGlo assay; format: functional, cell-based; settings: MV4-11, 72 h
SUD4 = experiment: Antiproliferative activity against human SU-DHL4 cells after 72 hrs by Cell-TiterGlo assay; format: functional, cell-based; settings: SU-DHL-4, 72 h
HL-60 = experiment: Antiproliferative activity against human HL60 cells after 72 hrs by Cell-TiterGlo assay; format: functional, cell-based; settings: HL-60, 72 h
Raji = experiment: Antiproliferative activity against human Raji cells after 72 hrs by Cell-TiterGlo assay; format: functional, cell-based
[9] = target: T1, Bromodomain-containing protein 2
Target sequence in this assay (P25440 whole entry, looked up): as the sequence (P25440 whole entry) above
Description: Binding affinity to His-tagged human Brd2 bromodomain 1 (1 to 473 residues) assessed as association rate constant by suface plasmon resonance assay

[10] = target: T1, Bromodomain-containing protein 2; remark: listed apart in the source
Target sequence in this assay (P25440 whole entry, looked up): as the sequence (P25440 whole entry) above
Description: Binding affinity to His-tagged human Brd2 bromodomain 2 (1 to 473 residues) assessed as association rate constant by surface plasmon resonance assay

| Compound | pIC50 [1] | pIC50 [2] | pIC50 [3] | pIC50 [4] | pIC50 [5] | other results |
| --- | --- | --- | --- | --- | --- | --- |
| Cc1nnn2c1-c1ccccc1N(Cc1cccc(Br)c1)CC2 | 7.36 | 7.77 | 6.89 | 7.68 | 7.54 |  |
| Cc1nnn2c1-c1ccc(C(=O)N[C@@H](C)c3ccccc3)cc1N(c1ccc(Cl)cc1)CC2 |  |  |  | 7.92 |  |  |
| Cc1nnn2c1-c1ccccc1N(c1ccccc1)C(=O)C2 | < 5.00 | < 5.00 | < 5.00 | < 5.00 | < 5.00 |  |
| Cc1nnn2c1-c1ccc(C#N)cc1N(c1ccc(Cl)cc1)CC2 |  | 7.89 |  |  | 7.96 |  |
| Cc1nnn2c1-c1ccc(C(=O)N[C@@H](C)c3ccc(F)cc3)cc1N(c1ccc(Cl)cc1)CC2 |  |  |  | 7.64 |  |  |
| Cc1nnn2c1-c1ccccc1N(c1ccccc1)CC2 |  | 7.67 to 7.92 |  |  | 7.40 to 7.55 |  |
| Cc1ccc(-c2ccc3c(c2)N(c2ccc(Cl)cc2)CCn2nnc(C)c2-3)cn1 |  | 8.15 |  | 8.00 | 7.80 |  |
| Cc1nnn2c1-c1ccc(-c3cc[nH]n3)cc1N(c1ccc(Cl)cc1)CC2 |  | 8.15 |  | 8.00 | 7.85 | pEC50 (RPMI-8226): 6.31; pEC50 (HEL 92.1.7): 6.14; pEC50 [6]: 6.95; pEC50 (CCRF-CEM): 5.65; pEC50 [7]: 6.01; pEC50 (K562): < 5.00; pEC50 [8]: 6.71; pEC50 (DOHH-2): 6.55; pEC50 (MV4-11): 6.70; pEC50 (SUD4): 6.24; pEC50 (HL-60): 6.86; pEC50 (Raji): 6.11 |
| Cc1nnn2c1-c1ccc(C(O)C(F)(F)F)cc1N(c1ccc(Cl)cc1)CC2 (stereo not drawn) |  | 7.64 |  |  | 7.37 |  |
| Cc1sc2c(c1C)C(c1ccc(Cl)cc1)=NC(CC(=O)OC(C)(C)C)c1nnc(C)n1-2 (stereo not drawn) |  |  |  |  |  | pEC50 (RPMI-8226): 6.59; pEC50 (HEL 92.1.7): 6.74; pEC50 [6]: 7.19; pEC50 (CCRF-CEM): 5.69; pEC50 [7]: 6.55; pEC50 (K562): < 5.00; pEC50 [8]: 6.91; pEC50 (DOHH-2): 6.55; pEC50 (MV4-11): 7.41; pEC50 (SUD4): 6.18; pEC50 (HL-60): 7.29; pEC50 (Raji): 6.48 |
| Cc1nnn2c1-c1ccc(C(=O)NC(c3ccccc3)c3ccccc3)cc1N(c1ccc(Cl)cc1)CC2 | 7.36 |  | 6.82 | 7.41 |  |  |
| Cc1nnn2c1-c1ccc(C(=O)NCc3ccccc3)cc1N(c1ccc(Cl)cc1)CC2 |  | 7.82 |  |  | 7.46 |  |
| Cc1nnn2c1-c1ccc(C(=O)NS(C)(=O)=O)cc1N(c1ccc(Cl)cc1)CC2 |  | 8.15 |  |  | 7.89 |  |
| Cc1nnn2c1-c1ccc(-c3ccc(N)nc3)cc1N(c1ccc(Cl)cc1)CC2 |  | 8.22 |  | 8.05 | 7.89 | pEC50 (RPMI-8226): 6.20; pEC50 (HEL 92.1.7): 6.40; pEC50 [6]: 7.11; pEC50 (CCRF-CEM): 5.86; pEC50 [7]: 5.89; Ka [9]: 2.9 ×10⁵ /M/s; pEC50 (K562): < 5.00; pEC50 [8]: 6.78; pEC50 (DOHH-2): 6.25; Ka [10]: 2.62 ×10⁵ /M/s; pEC50 (MV4-11): 6.85; pEC50 (SUD4): 6.01; pEC50 (HL-60): 6.82; pEC50 (Raji): 6.25 |
| Cc1nnn2c1-c1ccccc1N(c1ccc(Cl)cc1)CC2CCO (stereo not drawn) | 7.35 | 7.44 | 6.47 | 7.36 | 7.28 |  |
| Cc1nnn2c1-c1ccc(C(=O)N[C@H](C)c3ccccc3)cc1N(c1ccc(Cl)cc1)CC2 |  |  |  | 7.89 |  |  |
| Cc1nnn2c1-c1ccc(C(=O)O)cc1N(c1ccc(Cl)cc1)CC2 | 7.30 |  | 6.73 | 7.80 |  |  |
| Cc1nnn2c1-c1ccccc1N(c1ccc(Cl)cc1)C[C@H]2C | 7.60 |  | 7.42 |  |  |  |
| Cc1nnn2c1-c1ccc(C(=O)NS(=O)(=O)c3ccccc3)cc1N(c1ccc(Cl)cc1)CC2 | 7.60 | 8.00 | 7.27 | 7.68 | 7.68 |  |
| Cc1nnn2c1-c1ccc(-c3nn[nH]n3)cc1N(c1ccc(Cl)cc1)CC2 |  | 8.70 |  |  | 8.52 |  |
| Cc1nnn2c1-c1ccc(C(=O)Nc3ccccc3)cc1N(c1ccc(Cl)cc1)CC2 |  |  |  | 7.85 |  |  |
| Cc1nnn2c1-c1ccccc1N(c1ccc(Cl)cc1)C[C@@H]2C | 7.47 |  | 7.28 |  |  |  |
| Cc1nnn2c1-c1ccc(C(N)=O)cc1N(c1ccc(Cl)cc1)CC2 |  | 8.70 |  |  | 8.22 |  |
| Cc1nnn2c1-c1ccc(Cn3cccn3)cc1N(c1ccc(Cl)cc1)CC2 |  | 7.42 |  | 7.28 | 7.35 |  |
